Source: patent US9949479B2 (priority 2015, dated 2018)
Values after ≈ are worked out from the molar mass of the structure shown. Values joined by “and” are separate entries in the source; they are usually repeats but may differ in a detail not shown here. Equal entries are not always repeated. Where two headings read alike, the source gives them in different places.

Legend:
Fusarium graminearum = assay: microbe, parasite or virus in culture; assay type: cell-based
Fusarium asiaticum = assay: microbe, parasite or virus in culture; assay type: cell-based
[1] = test system: DON toxin biosynthesis of carbendazim-resistant fusarium asiaticum; assay: microbe, parasite or virus in culture; assay type: cell-based
leaf rust fungus = assay type: in vivo; conditions: seed treatment; dose as in E133
powdery mildew [2] = assay type: in vivo; conditions: dose as in E145
rust [3] = assay type: in vivo; conditions: dose as in E145
[4] = parameters: species or system wheat; conditions: in vivo
leaf blight [5] = assay type: in vivo; conditions: dose as in E154
powdery mildew [6] = assay type: in vivo; conditions: dose as in E154
rust [7] = assay type: in vivo; conditions: dose as in E154
[8] = assay type: in vivo, wheat; conditions: dose as in E162
leaf blight [9] = assay type: in vivo
powdery mildew [10] = assay type: in vivo
wheat scab [11] = assay type: in vivo, Fusarium spp.
leaf blight [12] = assay type: in vivo; remark: listed apart in the source
powdery mildew [13] = assay type: in vivo; remark: listed apart in the source
rust [14] = assay type: in vivo
[15] = parameters: species or system wheat; conditions: in vivo; remark: listed apart in the source
wheat scab [16] = assay type: in vivo, Fusarium spp.; remark: listed apart in the source
leaf blight [17] = assay type: in vivo; remark: listed apart in the source
rust [18] = assay type: in vivo; remark: listed apart in the source
[19] = parameters: species or system wheat; conditions: in vivo; remark: listed apart in the source
wheat scab [20] = assay type: in vivo, Fusarium spp.; conditions: Serial 6: preparation 100 g/mu; jinggangmycin 0, metconazole 20 g ai./mu
leaf blight [21] = assay type: in vivo; conditions: Serial 6: preparation 100 g/mu; jinggangmycin 0, metconazole 20 g ai./mu
powdery mildew [22] = assay type: in vivo; conditions: Serial 6: preparation 100 g/mu; jinggangmycin 0, metconazole 20 g ai./mu
rust [23] = assay type: in vivo; conditions: Serial 6: preparation 100 g/mu; jinggangmycin 0, metconazole 20 g ai./mu
wheat scab [24] = assay type: in vivo, Fusarium spp.; conditions: Serial 6: preparation 100; jinggangmycin 0, metconazole 20 g ai./mu
leaf blight [25] = assay type: in vivo; conditions: Serial 6: preparation 100; jinggangmycin 0, metconazole 20 g ai./mu
powdery mildew [26] = assay type: in vivo; conditions: Serial 6: preparation 100; jinggangmycin 0, metconazole 20 g ai./mu
rust [27] = assay type: in vivo; conditions: Serial 6: preparation 100; jinggangmycin 0, metconazole 20 g ai./mu
wheat scab [28] = assay type: in vivo, Fusarium spp.; remark: listed apart in the source
powdery mildew [29] = assay type: in vivo; remark: listed apart in the source
[30] = assay type: in vivo, wheat
[31] = Fusarium graminearum, read-out: Growth Inhibition Rate F.g
[32] = Fusarium asiaticum, read-out: Growth Inhibition Rate F.a
[33] = Serial 21: metconazole 20 g ai./mu alone
[34] = Serial 22: metconazole 18 g ai./mu alone
[35] = Serial 23: metconazole 16 g ai./mu alone
[36] = Serial 24: metconazole 10 g ai./mu alone
[37] = Serial 25: metconazole 9 g ai./mu alone
[38] = Serial 26: metconazole 8 g ai./mu alone
[39] = Serial 27: metconazole 6 g ai./mu alone
[40] = Serial 28: metconazole 3 g ai./mu alone
[41] = Serial 9: preparation 100 g/mu, metconazole 20 g ai./mu alone
[42] = Serial 10: preparation 80 g/mu, metconazole 16 g ai./mu alone
[43] = Serial 11: preparation 40 g/mu, metconazole 8 g ai./mu alone
[44] = Serial 12: preparation 20 g/mu, metconazole 4 g ai./mu alone
[45] = Serial 8: preparation 50 g/mu, metconazole 10 g ai./mu alone
[46] = Serial 10: preparation 15 g/mu, metconazole 3 g ai./mu alone
[47] = Serial 9: preparation 37.5 g/mu, metconazole 7.5 g ai./mu alone
[48] = Serial 10: preparation 30 g/mu, metconazole 6 g ai./mu alone
[49] = Serial 11: preparation 22.5 g/mu, metconazole 4.5 g ai./mu alone
[50] = Serial 12: preparation 15 g/mu, metconazole 3 g ai./mu alone

`CC1(C)CCC(Cc2ccc(Cl)cc2)C1(O)Cn1cncn1` (stereo not shown) [Metconazole] showed an ED50 (Fusarium graminearum; F.g sensitive strains) of 0.117 µg/mL (≈ 0.366 µM), an inhibition at 0.0625 µg/mL (Fusarium graminearum; [31]) of 30.7% and an inhibition at 0.125 µg/mL (Fusarium graminearum; [31]) of 58.5%. The inhibition at 0.25 µg/mL (Fusarium graminearum; [31]) was 75.7%, the inhibition at 0.5 µg/mL (Fusarium graminearum; [31]) was 89.1% and the inhibition at 1 µg/mL (Fusarium graminearum; [31]) was 96%. The inhibition at 0.1 µg/mL (Fusarium graminearum; Fusarium graminearum, read-out: inhibition rate on the hyphal growth of the head blight fungi) was ~50%, the “Average Fungal Colony Diameter F.g” value (Fusarium graminearum; Metconazole 0.0625 μg/mL, sensitive strains) was 52.1 mm and the “Average Fungal Colony Diameter F.g” value (Fusarium graminearum; Metconazole 0.125 μg/mL, sensitive strains) was 31.2 mm. The “Average Fungal Colony Diameter F.g” value (Fusarium graminearum; Metconazole 0.25 μg/mL, sensitive strains) was 18.3 mm, the “Average Fungal Colony Diameter F.g” value (Fusarium graminearum; Metconazole 0.5 μg/mL, sensitive strains) was 8.2 mm and the “Average Fungal Colony Diameter F.g” value (Fusarium graminearum; Metconazole 1.0 μg/mL, sensitive strains) was 3.0 mm. For the same compound, the “activity of metconazole relative to carbendazim (ED50)” value (Fusarium graminearum; sensitive strains) was “about four times”, the “activity of metconazole relative to phenamacril (ED50)” value (Fusarium graminearum; sensitive strains) was “about 1.5 times” and the ED50 (Fusarium asiaticum) was 0.114 µg/mL and 0.112 µg/mL and 0.116 µg/mL. The inhibition at 0.0625 µg/mL (Fusarium asiaticum; [32]) was 30.7%, the inhibition at 0.125 µg/mL (Fusarium asiaticum; [32]) was 58.6% and the inhibition at 0.25 µg/mL (Fusarium asiaticum; [32]) was 75.6%. For the same compound, the inhibition at 0.5 µg/mL (Fusarium asiaticum; [32]) was 89.2%, the inhibition at 1 µg/mL (Fusarium asiaticum; [32]) was 95.9% and the “DON Biosynthesis Inhibition Rate” value [1] was 0.66% and −0.34%. For the same compound, the “Toxin Production Capability” value [1] was 87.42 μgDON/g by dry weight of hyphae and 52.50 μgDON/g by dry weight of hyphae, the “Incidence Prevention Effect % Rust” value (leaf rust fungus) was 85.5% and 82.0% and 71.0% and 54.5% and the “Disease Index Prevention Effect % Powdery Mildew” value (powdery mildew [2]) was 78.7% and 74.3% and 70.2% and 48.6%. For the same compound, the “Disease Index Prevention Effect % Rust” value (rust [3]) was 83.8% and 78.4% and 66.7% and 41.9%, the “Thousand Kernel Weight” value [4] was 43.4 g and 42.8 g and 42.4 g and 40.4 g and the “Disease Index Prevention Effect % Leaf Blight” value (leaf blight [5]) was 56.2% and 70.4% and 73.7% and 80.0%. For the same compound, the “Disease Index Prevention Effect % Powdery Mildew” value (powdery mildew [6]) was 52.6% and 65.3% and 71.8% and 82.2%, the “Disease Index Prevention Effect % Rust” value (rust [7]) was 63.0% and 68.2% and 76.1% and 88.2% and the “Grain Toxin Content” value [8] was 2.01 μg/g of kernels and 2.24 μg/g of kernels and 2.38 μg/g of kernels and 2.94 μg/g of kernels. The “Disease Index Prevention Effect % Leaf Blight” value (leaf blight [9]; [33]) was 80.5%, the “Disease Index Prevention Effect % Leaf Blight” value (leaf blight [9]; [34]) was 80.2% and the “Disease Index Prevention Effect % Leaf Blight” value (leaf blight [9]; [35]) was 79.6%. For the same compound, the “Disease Index Prevention Effect % Leaf Blight” value (leaf blight [9]; [36]) was 75.3%, the “Disease Index Prevention Effect % Leaf Blight” value (leaf blight [9]; [37]) was 75.0% and the “Disease Index Prevention Effect % Leaf Blight” value (leaf blight [9]; [38]) was 74.3%. The “Disease Index Prevention Effect % Leaf Blight” value (leaf blight [9]; [39]) was 70.2%, the “Disease Index Prevention Effect % Leaf Blight” value (leaf blight [9]; [40]) was 28.1% and the “Disease Index Prevention Effect % Powdery Mildew” value (powdery mildew [10]; [33]) was 80.1%. For the same compound, the “Disease Index Prevention Effect % Powdery Mildew” value (powdery mildew [10]; [34]) was 74.6%, the “Disease Index Prevention Effect % Powdery Mildew” value (powdery mildew [10]; [35]) was 71.4% and the “Disease Index Prevention Effect % Powdery Mildew” value (powdery mildew [10]; [36]) was 63.4%. The “Disease Index Prevention Effect % Powdery Mildew” value (powdery mildew [10]; [37]) was 60.8%, the “Disease Index Prevention Effect % Powdery Mildew” value (powdery mildew [10]; [38]) was 58.6% and the “Disease Index Prevention Effect % Powdery Mildew” value (powdery mildew [10]; [39]) was 51.8%. For the same compound, the “Disease Index Prevention Effect % Powdery Mildew” value (powdery mildew [10]; [40]) was 26.4%, the “Disease Index Prevention Effect % Head Blight” value (wheat scab [11]; [41]) was 78.2% and the “Disease Index Prevention Effect % Head Blight” value (wheat scab [11]; [42]) was 71.2%. For the same compound, the “Disease Index Prevention Effect % Head Blight” value (wheat scab [11]; [43]) was 67.1%, the “Disease Index Prevention Effect % Head Blight” value (wheat scab [11]; [44]) was 52.0% and the “Disease Index Prevention Effect % Leaf Blight” value (leaf blight [12]; [41]) was 72.8%. The “Disease Index Prevention Effect % Leaf Blight” value (leaf blight [12]; [42]) was 70.6%, the “Disease Index Prevention Effect % Leaf Blight” value (leaf blight [12]; [43]) was 68.3% and the “Disease Index Prevention Effect % Leaf Blight” value (leaf blight [12]; [44]) was 50.8%. For the same compound, the “Disease Index Prevention Effect % Powdery Mildew” value (powdery mildew [13]; [41]) was 83.2%, the “Disease Index Prevention Effect % Powdery Mildew” value (powdery mildew [13]; [42]) was 75.4% and the “Disease Index Prevention Effect % Powdery Mildew” value (powdery mildew [13]; [43]) was 69.2%. The “Disease Index Prevention Effect % Powdery Mildew” value (powdery mildew [13]; [44]) was 60.6%, the “Disease Index Prevention Effect % Rust” value (rust [14]; [41]) was 84.4% and the “Disease Index Prevention Effect % Rust” value (rust [14]; [42]) was 77.3%. The “Disease Index Prevention Effect % Rust” value (rust [14]; [43]) was 70.6%, the “Disease Index Prevention Effect % Rust” value (rust [14]; [44]) was 63.8% and the “Thousand Kernel Weight” value [15] was 42.8 g and 41.8 g and 42.0 g and 39.2 g. For the same compound, the “Disease Index Prevention Effect % Head Blight” value (wheat scab [16]; [45]) was 75.6%, the “Disease Index Prevention Effect % Head Blight” value (wheat scab [16]; [46]) was 39.1% and the “Disease Index Prevention Effect % Leaf Blight” value (leaf blight [17]; [45]) was 72.8%. For the same compound, the “Disease Index Prevention Effect % Leaf Blight” value (leaf blight [17]; [47]) was 70.6%, the “Disease Index Prevention Effect % Leaf Blight” value (leaf blight [17]; [46]) was 68.3% and the “Disease Index Prevention Effect % Rust” value (rust [18]; [45]) was 84.4%. The “Disease Index Prevention Effect % Rust” value (rust [18]; [47]) was 77.3%, the “Disease Index Prevention Effect % Rust” value (rust [18]; [46]) was 70.6% and the “Thousand Kernel Weight” value [19] was 43.2 g and 42.6 g and 39.8 g. For the same compound, the “Disease Index Prevention Effect % Head Blight” value (wheat scab [20]) was 83.4%, the “Disease Index Prevention Effect % Leaf Blight” value (leaf blight [21]) was 84.6% and the “Disease Index Prevention Effect % Powdery Mildew” value (powdery mildew [22]) was 98.2%. The “Disease Index Prevention Effect % Rust” value (rust [23]) was 100%, the “Disease Index Prevention Effect % Head Blight” value (wheat scab [24]) was 82.4% and the “Disease Index Prevention Effect % Leaf Blight” value (leaf blight [25]) was 80.6%. For the same compound, the “Disease Index Prevention Effect % Powdery Mildew” value (powdery mildew [26]) was 78.2%, the “Disease Index Prevention Effect % Rust” value (rust [27]) was 85.0% and the “Disease Index Prevention Effect % Head Blight” value (wheat scab [28]; [48]) was 52.3%. For the same compound, the “Disease Index Prevention Effect % Head Blight” value (wheat scab [28]; [49]) was 49.6%, the “Disease Index Prevention Effect % Head Blight” value (wheat scab [28]; [50]) was 28.6% and the “Disease Index Prevention Effect % Powdery Mildew” value (powdery mildew [29]; [48]) was 60.6%. For the same compound, the “Disease Index Prevention Effect % Powdery Mildew” value (powdery mildew [29]; [49]) was 58.6%, the “Disease Index Prevention Effect % Powdery Mildew” value (powdery mildew [29]; [50]) was 45.1% and the “Grain Toxin Content mg of DON/kg of grain” value (“Grain Toxin Content mg” for short) [30, 47] was 2.01 mg of DON/kg of grain. For the same compound, the “Toxin Reduction Percentage %” value [30, 47] was 55.5%, the “Grain Toxin Content mg” value [30, 48] was 2.17 mg of DON/kg of grain and the “Toxin Reduction Percentage %” value [30, 48] was 52.0%. The “Grain Toxin Content mg” value [30, 49] was 2.06 mg of DON/kg of grain, the “Toxin Reduction Percentage %” value [30, 49] was 54.4% and the “Grain Toxin Content mg” value [30, 50] was 3.12 mg of DON/kg of grain. The “Toxin Reduction Percentage %” value [30, 50] was 31.0%.
